The inhibition is how much of the control response was suppressed. The IC50 is the concentration at which inhibition is half-maximal. Read a high IC50 as a need for much substance.

The text below walks through data of US6589951B1, “Phthalazine derivatives as phosphodiesterase 4 inhibitors” (Zambon Group S.p.A., priority 1997, dated 2003).

Test [1] deals with T1, PDE 3 (Homo sapiens, UniProt Q14432).
T1 construct: Human platelets were prepared from platelet rich plasma (PRP); from tissue; host or cells: human platelets (platelet rich plasma, L. Sacco Hospital, Milan)
Briefly: PDE 3 enzyme inhibition test (SPA). The format is biochemical. The following applies: at 10^-6 M; enzyme from human platelets. The method, then: (§1) Human platelets were prepared from platelet rich plasma (PRP) obtained from the Hematological Dept. of the “L.Sacco” Hospital of Milan. The PRP was centrifuged at 2,200 rpm for 15 minutes at 4° C. and the pellet was suspended in lysis solution (15 ml; 155 mM NH4Cl, 10 mM KHCO3 and 0.1 mM Na2EDTA, pH=7.4) and incubated for 10 minutes on ice-bath to remove the erythrocyte contamination. After a centrifuging at 1,400 rpm for 10 minutes at 4° C., platelets were suspended in 10 ml of […], 5 mM KCl, 1 mM MgSO4, 10 mM glucose, 10 mM HEPES and 0.05 U/ml of hirudin (pH=7.4), and stored at −20° C. until homogenization and chromatography.
(§2) Before the chromatographic step, platelets were thawed and 50 ml of 20 mM TRIS (pH=6.5) containing 5 mM βmercapto-ethanol, 2 mM EDTA, 50mM sodium acetate and 50 μM PMSF (homogenization buffer) were added. The platelet suspension was then homogenized by a Polytron homogenizer (Polytron PT 1200) for 20 seconds. The homogenate was centrifuged at 14,500 rpm for 20 minutes at 4° C., and the supernatant was applied to a UNO Q12 column (Bio-Rad) pre-equilibrated with the PMSF. A flow rate of 4.5 ml/min was used throughout the ion exchange chromatography procedure. The column was washed with PMSF (180 ml) and PDE 3 and PDE 5 were eluted by sodium acetate linear gradient from 0.05M to 1M. The fractions containing enzymatic activity were joined, dialysed against water and concentrated 10 times by ultrafiltration. The resulting solution was stored at −20° C. in the presence of ethylenglycole (30%) v/v) until use.
(§3) The enzyme activity was assessed with an Amersham kit based on the SPA technique (Scintillation Proximity Assay). The enzymatic reaction was effected in a total volume of 100 μl of TRIS/HCl buffer (50 mM, pH7.5), MgCl2 (8.3 mM), EGTA (1.7 mM), cAMP (for PDE 3 assay) or cGMP (for PDE 5 assay) (1 μM), [^3H]cAMP or [^3H]cGMP (10 μl), and 10 μl of the compounds of the invention. The reaction was started by adding the enzyme (10 μl) incubated for 40 minutes at 30° C. and stopped by adding 50 μl of SPA beads. The radioactivity due to the particles was measured in β-emitting counter. The results are expressed as percent activity versus the control present in each test.

Test [2] concerns PDE 4. As to the kind of experiment: PDE 4 enzyme inhibition test (SPA). In kind it is biochemical, human. The following applies: for activity on PDE 4 (in words): summary statement in description. The method, then:
The polymorphonucleate leukocytes (PMNs) were isolated from peripheral blood of healthy volunteers according to what described by Boyum A, Scand. J. Immunol., 1976, 5° suppl., 9). Shortly, the isolation of the PMNs was effected by Ficoll-Paque gradient centrifugation followed by sedimentation on dextrane and the erythrocyte contamination was eliminated by hypotonic lysis.
The human PMNs were resuspended in TRIS/HCl buffer (10 mM pH 7.8) containing MgCl2 (5mM), EGTA (4 mM), mercaptoethanol (5 mM), TRITON-X100 (1%), pepstatin A (1 μM), PMSF (100 μM) and leupeptin (1 μM), and homogenised by Polytron. The homogenate was centrifuged at 25,000×g for 30 minutes at 4° C. and the surnatant was used for the PDE 4 enzyme purification by ion exchange chromatography using the FPLC technique according to what described by Schudt C. et al., Naunyn-Schmidberg's Arch. Pharmacol., 1991, 334, 682. The surnatant was seeded on a UNO Q12 column (Bio-Rad) and the enzyme was eluted by sodium acetate gradient from 50mM to 1M. The fractions containing enzymatic activity were joined, dialysed against water and concentrated. The resulting PDE 4 enzyme was stored at −20° C. in the presence of ethylenglycole (30%) v/v) until use.
The enzyme activity was assessed with an Amersham kit based on the SPA technique (Scintillation Proximity Assay). The enzymatic reaction was effected in a total volume of 100 μl of TRIS/HCl buffer (50 mM, pH7.5), MgCl2 (8.3mM), EGTA (1.7 mM), cAMP (1μM) and [^3H]cAMP (˜100.000 dpm). The compounds of the invention and the reference ones were added at the wanted concentrations. As reference compounds 6,7 dimethoxy-4-(pyridin-4-ylmethyl)-2H-phthalazin-1 on (reference 1) and 6,7-dimethoxy-4-(piperidin-4-ylmethyl)-2H-phthalazin-1-one (reference 2) embraced by the general formula of the patent application EP-0 722 936 (in the name of Eisai) were used. The reaction was started by adding the enzyme (15 μg protein/ml) in 40 minutes at 30° C. and stopped with 50 μl of SPA particles suspension. The radioactivity of the particles was measured in β-emitting counter. The IC50 values were computed over 9 equidistant concentrations in logarithmic scale using a 4-parameters logistic function by a software.

The target in test [3] is T2, PDE 5 (Homo sapiens, UniProt O76074).
T2 construct: Human platelets were prepared from platelet rich plasma (PRP); from tissue; host or cells: human platelets (platelet rich plasma, L. Sacco Hospital, Milan)
Briefly: PDE 5 enzyme inhibition test (SPA). The format is biochemical. The following applies: at 10^-6 M; enzyme from human platelets. The method, then: as §1, §2, §3

In test [4] the test system is TNFα. Briefly: TNFα synthesis inhibition in LPS-stimulated human monocytes (ELISA). The following applies: Monocyte, LPS 1 ng/ml, 16 hours. The format is cell-based. The method, then: The monocytes were isolated from peripheral blood of healthy volunteers according the procedure of Schreek L., J. Natl. Cancer Inst., 1964, 32, 507. The monocytes and lymphocytes population was isolated by Ficoll gradient centrifugation, and the cells diluted at a density of 2.5×10^6 cells/ml in RPMI1640 incubation containing 1% inactivated bovine fetal serum, penicillin (100 U/ml) and streptomycin (100 U/ml) were placed in 24-wells plates (1 ml/well) and left to adhere for 1 hour at 37° C. with 5% CO2. At the end of the incubation the lymphocytes not adhering were removed by aspiration and the monocytes adhered to the plate were used in the next step.
The TNFα synthesis from human monocytes was measured according to the method of Barnette M. et al., Biochemical Pharmacology, 1996, 51, 949. The monocles were incubated for 1 hour with 1 ml of RPMI1640 incubation medium (1% inactivated bovine serum, 100 U/ml penicillin and streptomycin) containing different concentrations of the products according to the present invention or the carrier only for the controls. The TNFα synthesis from monocytes was induced by adding 1ng/ml of LPS (lipopolysaccharide of E. Coli) and after 16 hours of incubation at 37° C., 5% CO2, the incubation medium was removed, and the surnatant stored at −80° C. until the measurement. The TNFα levels were determined by ELISA test with an Amersham kit. The results are set forth in Table 2 as IC50 measured with the same calculation of example 67.

The mark [5] stands for this setting: at 10^-6 M, enzyme from human PMNs.
[6] abbreviates: at 10^-8 M, enzyme from human PMNs.
Where [7] appears, read: enzyme from human PMNs, 9 concentrations, 4-parameter logistic.
Where [8] appears, read: at 10^-5 M, enzyme from human PMNs.

T1 sequence (Q14432 whole entry): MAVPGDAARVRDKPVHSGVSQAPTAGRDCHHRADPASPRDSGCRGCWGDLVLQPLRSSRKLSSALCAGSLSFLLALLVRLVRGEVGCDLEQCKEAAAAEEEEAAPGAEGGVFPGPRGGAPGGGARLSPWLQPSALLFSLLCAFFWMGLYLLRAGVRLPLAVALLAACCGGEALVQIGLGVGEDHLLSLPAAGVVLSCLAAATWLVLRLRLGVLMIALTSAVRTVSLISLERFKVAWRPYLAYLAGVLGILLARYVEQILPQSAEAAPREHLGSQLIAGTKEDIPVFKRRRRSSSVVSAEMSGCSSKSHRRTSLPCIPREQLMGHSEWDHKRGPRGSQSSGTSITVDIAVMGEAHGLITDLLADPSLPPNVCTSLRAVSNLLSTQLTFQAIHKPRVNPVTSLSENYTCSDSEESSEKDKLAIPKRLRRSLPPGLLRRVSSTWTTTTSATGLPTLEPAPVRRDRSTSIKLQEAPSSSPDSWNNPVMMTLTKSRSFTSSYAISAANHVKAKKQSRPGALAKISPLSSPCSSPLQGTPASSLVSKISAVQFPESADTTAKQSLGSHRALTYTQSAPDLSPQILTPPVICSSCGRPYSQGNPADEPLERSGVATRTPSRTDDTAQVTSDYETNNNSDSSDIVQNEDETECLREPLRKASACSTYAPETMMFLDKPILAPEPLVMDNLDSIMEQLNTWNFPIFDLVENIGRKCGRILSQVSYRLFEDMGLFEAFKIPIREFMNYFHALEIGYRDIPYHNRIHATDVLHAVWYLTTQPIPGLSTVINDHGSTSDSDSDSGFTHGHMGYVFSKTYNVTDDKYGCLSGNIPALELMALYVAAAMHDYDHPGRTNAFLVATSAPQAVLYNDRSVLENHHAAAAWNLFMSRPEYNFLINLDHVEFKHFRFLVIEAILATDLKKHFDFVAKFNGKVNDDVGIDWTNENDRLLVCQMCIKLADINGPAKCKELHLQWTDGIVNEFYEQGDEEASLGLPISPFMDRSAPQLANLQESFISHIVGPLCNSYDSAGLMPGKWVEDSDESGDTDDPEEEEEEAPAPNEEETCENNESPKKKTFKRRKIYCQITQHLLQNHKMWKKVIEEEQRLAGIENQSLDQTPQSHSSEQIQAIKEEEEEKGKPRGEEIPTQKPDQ

With `COc1ccc2c(Cc3c(Cl)cncc3Cl)nncc2c1OC1CCCC1` [Compound 1, 5-Cyclopentyloxy-1-(3,5-dichloropyridin-4-ylmethyl)-6-methoxy-phthalazine], the inhibition at 1 µM worked out at 0% in test [1] and 20% in test [3]. In addition, the entries for the “PDE 4 % inhibition” value in test [2] (setting [5]) and in test [2] (setting [6]) were 84% and 19%, respectively. Also, the IC50 in test [2] (setting [7]) worked out at 53.1 ± 10 nM; in test [4] it was 254 ± 84 nM.
For the compound `COc1ccc2c(Cc3c(Cl)cncc3Cl)n[n+]([O-])cc2c1OC1CCCC1` [Compound 2, 5-Cyclopentyloxy-1-(3,5-dichloropyridin-4-ylmethyl)-6-methoxy-phthalazin-3-oxide], the inhibition at 1 µM in test [1] is 20%; in test [3], 4%. Moreover, the results for the “PDE 4 % inhibition” value in test [2] (setting [8]), in test [2] (setting [5]) and in test [2] (setting [6]) were 97%, 94% and 25%, respectively. In addition, the IC50 in test [2] (setting [7]) was 42.4 ± 5 nM; in test [4] it was 139 ± 55 nM.
`FC(F)Oc1ccc2c(Cc3c(Cl)cncc3Cl)nncc2c1OC1CCCC1` [Compound 3, 5-Cyclopentyloxy-1-(3,5-dichloropyridin-4-yl-methyl)-6-difluoromethoxy-phthalazine]: the inhibition at 1 µM in test [1] was 5%; in test [3], 14%. Besides, the “PDE 4 % inhibition” value in test [2] (setting [5]) worked out at 100%; in test [2] (setting [6]), 34%. Also, the values for the IC50 in test [2] (setting [7]) and in test [4] were 38.9 ± 7 nM and 167 ± 79 nM, respectively.
With `COc1ccc2c(Nc3c(Cl)cncc3Cl)nncc2c1OC1CCCC1` [Compound 4, 5-Cyclopentyloxy-1-(3,5-dichloropyridin-4-ylamino)-6-methoxy-phthalazine], the inhibition at 1 µM in test [1] was 8%; in test [3] it was 19%. Moreover, in test [2] (setting [5]), the “PDE 4 % inhibition” value came to 73%. The IC50 was found to be 58.9 ± 5 nM in test [2] (setting [7]) and 187 ± 35 nM in test [4].
On to `COc1ccc2c(Cc3c(Cl)cncc3Cl)nncc2c1OC1Cc2ccccc2C1` [Compound 5, 1-(3,5-Dichloro-pyridin-4-methyl)5-(indan-2-yloxy)-6-methoxy-2H-phthalazine], for which the “PDE 4 % inhibition” value came to 80% in test [2] (setting [5]) and 33% in test [2] (setting [6]). Besides, the IC50 turned out to be 29.5 ± 4 nM in test [2] (setting [7]) and 252 ± 120 nM in test [4].
`COc1ccc2c(Cc3c(Cl)cncc3Cl)nncc2c1OCCCCCc1ccccc1` [Compound 6, 1-(3,5-Dichloro-pyridin-4-methyl)-5-(5-phenyl-pentyl-1-oxy)-6-methoxy-phthalazine]: the results for the inhibition at 1 µM in test [1] and in test [3] were 25% and 20%, respectively. The “PDE 4 % inhibition” value was found to be 79% in test [2] (setting [5]) and 27% in test [2] (setting [6]). Further, the half-inhibitory concentration (IC50) was determined as 56.8 ± 9 nM in test [2] (setting [7]) and 83.5 ± 24 nM in test [4].
With `COc1cc2cnnc(Cc3c(Cl)cncc3Cl)c2cc1OC1CCCC1` [Compound 7, 7-Cyclopentyloxy-1-(3,5-dichloropyridin-4-ylmethyl)-6-methoxy-phthalazine], in test [2] (setting [7]), the IC50 came out at 186 ± 43 nM.
Same read-out and setting: under `COc1cc2c(C)nnc(Cc3c(Cl)cncc3Cl)c2cc1OC1CCCC1` [Compound 9, 7-Cyclopentyloxy-1-(3,5-dichloro-pyridin-4-ylmethyl)-4-methyl-6-methoxy-phthalazine] stands 146 ± 38 nM.
Regarding `CCc1nnc(Cc2c(Cl)cncc2Cl)c2cc(OC3CCCC3)c(OC)cc12` [Compound 10, 7-Cyclopentyloxy-1-(3,5-dichloro-pyridin-4-ylmethyl)-4-ethyl-6-methoxy-phthalazine], the inhibition at 1 µM in test [1] and in test [3] was 20% throughout. For the same compound, the “PDE 4 % inhibition” value in test [2] (setting [8]) is 93%; in test [2] (setting [5]) it was 80%; in test [2] (setting [6]) it was 33%. Also, the IC50 in test [2] (setting [7]) amounted to 74.9 ± 8 nM; in test [4], 259 ± 86 nM.
For the compound `COc1ccc2c(Cc3c(Cl)cncc3Cl)nncc2c1OC1CCOC1` (stereo not drawn) [Compound 13], the inhibition at 1 µM in test [1] worked out at 4%; in test [3] it was 2%. In test [2] (setting [7]), this compound registered a half-inhibitory concentration (IC50) of 153 ± 85 nM.
For `COc1ccc2c(Cc3c(Cl)cncc3Cl)n[n+]([O-])cc2c1OC1CCOC1` (stereo not drawn) [Compound 14], the values for the IC50 in test [2] (setting [7]) and in test [4] were 298 ± 37 nM and 389 ± 47 nM, respectively.
With `FC(F)Oc1ccc2c(Cc3c(Cl)cncc3Cl)nncc2c1OC1CCOC1` (stereo not drawn) [Compound 15, 1-(3,5-Dichloro-pyridin-4-ylmethyl)-6-difluoromethoxy-5-(tetrahydro-furan-3-yloxy)-phthalazine], the inhibition at 1 µM came out at 11% in test [1] and 0% in test [3]. In addition, in test [2] (setting [7]), it took 282 ± 36 nM to reach half-maximal inhibition (IC50).
Turning to `COc1ccc2c(Cc3c(Cl)c[n+]([O-])cc3Cl)n[n+]([O-])cc2c1OC1CCOC1` (stereo not drawn) [Compound 19], in test [2] (setting [7]), the midpoint of inhibition, the IC50, lay at 206 ± 124 nM. In test [3], this compound displayed an inhibition at 1 µM of 8%.
With `COc1cc2c(Cc3ccncc3)n[nH]c(=O)c2cc1OC` [Reference 1, 6,7-dimethoxy-4-(pyridin-4-yl-methyl)-2H-phthalazin-1-one, reference compound], in test [2] (reference compounds), the IC50 is > 100000 nM. For the same compound, the “activity on PDE 4 (in words)” value in test [2] is “did not show to be active”.
The corresponding values for `COc1cc2c(CC3CCNCC3)n[nH]c(=O)c2cc1OC` [Reference 2, 6,7-dimethoxy-4-(piperidin-4yl-methyl)-2H-phthalazin-1-one, reference compound] are > 100000 nM and “did not show to be active”.
